Assay [1] deals with T1, 5HT2C receptors (Homo sapiens, UniProt P28335).
T1 sequence (P28335 33-458): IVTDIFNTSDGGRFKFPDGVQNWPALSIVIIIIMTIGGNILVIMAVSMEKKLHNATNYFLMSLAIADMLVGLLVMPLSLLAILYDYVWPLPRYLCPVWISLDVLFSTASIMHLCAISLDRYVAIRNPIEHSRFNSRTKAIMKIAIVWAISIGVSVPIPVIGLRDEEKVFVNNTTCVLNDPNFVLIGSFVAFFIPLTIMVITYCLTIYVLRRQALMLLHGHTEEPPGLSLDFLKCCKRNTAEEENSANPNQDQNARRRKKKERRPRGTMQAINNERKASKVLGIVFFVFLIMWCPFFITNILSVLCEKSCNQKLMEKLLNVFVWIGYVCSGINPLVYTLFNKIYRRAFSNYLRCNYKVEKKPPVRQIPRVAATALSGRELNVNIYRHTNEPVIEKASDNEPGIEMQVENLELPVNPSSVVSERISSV
Description: Human 5-HT2C functional high throughput screening assay in CHO-K1 cells (calcium flux). Further details: expressed in transfected cells; host or cells: CHO-K1 cells; call rule not given here. To be noted: for EC50: CHO-K1 cells, calcium flux. In kind it is cell-based. Summed up:
(§1)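 FLIPR calcium readout, ex 480/em 530 nm, 25 °C, 3 min post-addition; agonist response normalized to serotonin, 4-parameter fit → EC50, Emax (% serotonin). Cells: frozen CHO-K1 stable lines, serum-free overnight, Ca4 dye + 2.5 mM probenecid, 60 min RT dark.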
In general terms: A change in cytosolic calcium serves as a functional read-out for many receptors and channels.

Assay [2] has as its target T2, 5HT2B receptors (Homo sapiens, UniProt P41595).
T2 construct: expressed in transfected cells; host or cells: CHO-K1 cells
Nature of the assay: Human 5-HT2B functional high throughput screening assay in CHO-K1 cells (calcium flux). To be noted: for EC50: CHO-K1 cells, calcium flux. In kind it is cell-based. A digest of the protocol: as §1

Where [3] appears, read: 5-HT2C agonist activity, read-out: EC50.
Setting [4] is: CHO-K1, 5-HT2C, maximum functional response as percentage relative to the effect of serotonin, read-out: Emax.
[5] abbreviates: 5-HT2B agonist activity, read-out: EC50.
The mark [6] stands for this setting: 5-HT2B, maximum functional response as percentage relative to the effect of serotonin.
Where [7] appears, read: CHO-K1, 5-HT2C, maximum functional response as percentage relative to the effect of serotonin.

Where two headings read alike, the source gives them in different places.

Our source for the EC50 and Emax values is patent publication US8846951B2 (AbbVie Inc., priority 2009, dated 2014).

T2 sequence (P41595 whole entry): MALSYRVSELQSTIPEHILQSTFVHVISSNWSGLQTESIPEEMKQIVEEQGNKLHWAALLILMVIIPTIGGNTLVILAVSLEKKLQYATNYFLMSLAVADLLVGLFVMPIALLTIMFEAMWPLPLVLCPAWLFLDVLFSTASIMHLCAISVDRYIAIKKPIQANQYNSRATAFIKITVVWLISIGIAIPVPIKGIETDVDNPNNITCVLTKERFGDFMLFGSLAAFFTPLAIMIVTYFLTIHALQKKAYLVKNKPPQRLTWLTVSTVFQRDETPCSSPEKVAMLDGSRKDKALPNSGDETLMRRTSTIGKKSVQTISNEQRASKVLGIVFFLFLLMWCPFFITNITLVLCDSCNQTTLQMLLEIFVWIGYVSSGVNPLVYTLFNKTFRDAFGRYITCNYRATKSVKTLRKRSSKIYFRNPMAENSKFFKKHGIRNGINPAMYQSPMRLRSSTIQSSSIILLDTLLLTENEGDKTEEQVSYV

The term EC50 denotes the concentration at which the effect is half-maximal. Usually Emax stands for the greatest response seen or fitted, relative to the assay's reference. With `O=C1NC[C@H]2CNC[C@@H]2c2ccc(-c3ccc(F)cc3)cc21` [Example 220, (3aR,10bS)-8-(4-Fluorophenyl)-1,2,3,3a,4,5-hexahydrobenzo[e]pyrrolo[3,4-c]azepin-6(10bH)-one], the EC50 was less than 0.1 nM in assay [1] (setting [3]) and greater than 10000 nM in assay [2] (setting [5]). The figures for the Emax in assay [1] (setting [4]) and in assay [2] (setting [6]) were greater than 120% and “inactive”, respectively.
The like results for `CS(=O)(=O)c1cccc(-c2cccc3c2OCC[C@H]2CNC[C@H]32)c1` (relative stereo) [Example 350, Trans-7-[3-(methylsulfonyl)phenyl]-2,3,3a,4,5,10b-hexahydro-1H-[1]benzoxepino[4,5-c]pyrrole] were, in that order, 1000 nM, greater than 10000 nM, 75% and “inactive”.
In the case of `CN1C[C@@H]2CNC(=O)c3cc(Cl)ccc3[C@H]2C1` [Example 199, (3aS,10bS)-8-Chloro-2-methyl-1,2,3,3a,4,5-hexahydrobenzo[e]pyrrolo[3,4-c]azepin-6(10bH)-one], the Emax was greater than 120% in assay [1] (setting [7]) and “inactive” in assay [2] (setting [6]). Further, the half-maximal effective concentration (EC50) in assay [1] (EC50, 5-HT2C agonist activity) is 10 nM; in assay [2] (EC50, 5-HT2B agonist activity), greater than 10000 nM.
Consider `CN1C[C@@H]2CNC(=O)c3cc(OCC4CC4)ccc3[C@H]2C1` [Example 277, (3aS,10bS)-8-(Cyclopropylmethoxy)-2-methyl-1,2,3,3a,4,5-hexahydrobenzo[e]pyrrolo[3,4-c]azepin-6(10bH)-one], for which the Emax in assay [1] (setting [7]) was 100%; in assay [2] (setting [6]), “inactive”. For the same compound, the EC50 in assay [1] (EC50, 5-HT2C agonist activity) is 10 nM; in assay [2] (EC50, 5-HT2B agonist activity), greater than 10000 nM.
In the case of `CN1C[C@H]2CNC(=O)c3cc(C4CCCCC4)ccc3[C@@H]2C1` (relative stereo) [Example 204, Trans-8-cyclohexyl-2-methyl-1,2,3,3a,4,5-hexahydrobenzo[e]pyrrolo[3,4-c]azepin-6(10bH)-one], the EC50 in assay [1] (setting [3]) is 500 nM; in assay [2] (setting [5]), greater than 10000 nM. For the same compound, the maximal response (Emax) in assay [1] (setting [7]) is 80%; in assay [2] (setting [6]) it was “inactive”.
For the compound `CC(C)COc1ccc2c(c1)C(=O)NC[C@@H]1CNC[C@@H]21` (relative stereo) [Example 166, Trans-8-isobutoxy-1,2,3,3a,4,5-hexahydrobenzo[e]pyrrolo[3,4-c]azepin-6(10bH)-one], the figures for the Emax in assay [1] (setting [7]) and in assay [2] (setting [6]) were greater than 120% and “inactive”, respectively. The concentration for a half-maximal effect (EC50) in assay [2] (EC50, 5-HT2B agonist activity) is greater than 10000 nM.
`COc1ccc2c(c1)[C@H]1CN(Cc3ccccc3)C[C@@H]1CCC2=O` (relative stereo) [Example 261, Trans-2-benzyl-9-methoxy-2,3,3a,4,5,10b-hexahydrobenzo[3,4]cyclohepta[1,2-c]pyrrol-6(1H)-one]: the EC50 in assay [1] (setting [3]) was 40 nM; in assay [2] (setting [5]) it was greater than 10000 nM. Moreover, the Emax in assay [1] (setting [4]) is greater than 120%; in assay [2] (setting [6]), “inactive”.
Turning to `COc1cc(-c2ccc3c(c2)C(=O)NC[C@@H]2CN(C)C[C@@H]32)ccc1F` (relative stereo) [Example 320, Trans-8-(4-fluoro-3-methoxyphenyl)-2-methyl-2,3,3a,4,5,10b-hexahydropyrrolo[3,4-d][2]benzazepin-6(1H)-one], the EC50 in assay [1] (setting [3]) is 7 nM; in assay [2] (setting [5]) it was greater than 10000 nM. The Emax in assay [1] (setting [4]) was 90%; in assay [2] (setting [6]), “inactive”.
Consider `CC(C)CNc1ccc2c(c1)C(=O)NC[C@@H]1CN(C)C[C@@H]21` (relative stereo) [Example 297, Trans-8-(isobutylamino)-2-methyl-2,3,3a,4,5,10b-hexahydropyrrolo[3,4-d][2]benzazepin-6(1H)-one], for which the values for the Emax in assay [1] (setting [7]) and in assay [2] (setting [6]) were 80% and “inactive”, respectively. For the same compound, the EC50 in assay [1] (EC50, 5-HT2C agonist activity) was 100 nM; in assay [2] (EC50, 5-HT2B agonist activity) it was greater than 10000 nM.
The like results for `CC1(C)CCC(Oc2ccc3c(c2)C(=O)NC[C@@H]2CNC[C@@H]32)CC1` (relative stereo) [Example 246, Trans-8-(4,4-dimethylcyclohexyloxy)-1,2,3,3a,4,5-hexahydrobenzo[e]pyrrolo[3,4-c]azepin-6(10bH)-one] were, in that order, 100%, “inactive”, 40 nM and greater than 10000 nM.
`CN1C[C@@H]2CCOc3c(-c4ccc(F)cc4)cccc3[C@H]2C1` (relative stereo) [Example 400, Trans-7-(4-fluorophenyl)-2-methyl-2,3,3a,4,5,10b-hexahydro-1H-[1]benzoxepino[4,5-c]pyrrole]: the EC50 was 800 nM in assay [1] (setting [3]) and greater than 10000 nM in assay [2] (setting [5]). Moreover, the Emax in assay [1] (setting [4]) was 70%; in assay [2] (setting [6]) it was “inactive”.
Taken in the same sequence, the figures for `CN1C[C@@H]2CNC(=O)c3cc(OCc4ccc(F)cc4)ccc3[C@H]2C1` [Example 211, (3aS,10bS)-8-(4-Fluorobenzyloxy)-2-methyl-1,2,3,3a,4,5-hexahydrobenzo[e]pyrrolo[3,4-c]azepin-6(10bH)-one] were 2 nM, greater than 10000 nM, greater than 120% and “inactive”.
Regarding `CN1CC[C@@H]2CNC[C@H]2c2ccccc21` (relative stereo) [Example 327, Trans-6-methyl-1,2,3,3a,4,5,6,10b-octahydropyrrolo[3,4-d][1]benzazepine], the Emax was determined as 95% in assay [1] (setting [7]) and 75% in assay [2] (CHO-K1). Further, the concentration giving a half-maximal response (EC50) stood at 10 nM in assay [1] (EC50, 5-HT2C agonist activity) and 200 nM in assay [2] (EC50, 5-HT2B agonist activity).
In the case of `CN1C[C@H]2CNC(=O)c3cc(C(=O)NCCc4cccc(C(F)(F)F)c4)ccc3[C@@H]2C1` (relative stereo) [Example 127, Trans-2-methyl-6-oxo-N-(3-(trifluoromethyl)phenethyl)-1,2,3,3a,4,5,6,10b-octahydrobenzo[e]pyrrolo[3,4-c]azepine-8-carboxamide], the EC50 in assay [1] (setting [3]) was 1000 nM; in assay [2] (setting [5]), greater than 10000 nM. Further, the Emax in assay [1] (setting [4]) was 80%; in assay [2] (setting [6]), “inactive”.
On to `O=C1C[C@@H]2CN(Cc3ccccc3)C[C@H]2c2ccccc2N1` (relative stereo) [Example 222, Trans-2-benzyl-1,2,3,3a,4,10b-hexahydrobenzo[b]pyrrolo[3,4-d]azepin-5(6H)-one], for which the EC50 was 400 nM in assay [1] (setting [3]) and greater than 10000 nM in assay [2] (setting [5]). Moreover, the figures for the Emax in assay [1] (setting [4]) and in assay [2] (setting [6]) were greater than 120% and “inactive”, respectively.
For “Trans-8-(2-methoxyphenethoxy)-2-methyl-1,2,3,3a,4,5-hexahydrobenzo[e]pyrrolo[3,4-c]azepin-6(10bH)-one [Example 183]”, the EC50 is 40 nM in assay [1] (setting [3]) and greater than 10000 nM in assay [2] (setting [5]). Also, the Emax in assay [1] (5-HT2C, maximum functional response as percentage relative to the effect of serotonin) is 65%; in assay [2] (setting [6]), “inactive”.
As to `COc1ccc(F)c(-c2ccc3c(c2)C(=O)NC[C@@H]2CN(C)C[C@@H]32)c1` (relative stereo) [Example 323, Trans-8-(2-fluoro-5-methoxyphenyl)-2-methyl-2,3,3a,4,5,10b-hexahydropyrrolo[3,4-d][2]benzazepin-6(1H)-one], the EC50 is 9 nM in assay [1] (setting [3]) and greater than 10000 nM in assay [2] (setting [5]). Moreover, the Emax in assay [1] (setting [4]) was 90%; in assay [2] (setting [6]), “inactive”.
Regarding `O=C1NC[C@@H]2CN(CCF)C[C@H]2c2ccc(-c3ccc(F)cc3)cc21` (relative stereo) [Example 384, Trans-2-(2-fluoroethyl)-8-(4-fluorophenyl)-2,3,3a,4,5,10b-hexahydropyrrolo[3,4-d][2]benzazepin-6(1H)-one], the EC50 was 40 nM in assay [1] (setting [3]) and greater than 10000 nM in assay [2] (setting [5]). Moreover, the Emax in assay [1] (CHO-K1) was 85%; in assay [2], “inactive”.
For `FC(F)(F)Oc1ccc2c(c1)[C@H]1CNC[C@@H]1CCO2` (relative stereo) [Example 282, Trans-9-(trifluoromethoxy)-2,3,3a,4,5,10b-hexahydro-1H-[1]benzoxepino[4,5-c]pyrrole], the EC50 turned out to be 900 nM in assay [1] (setting [3]) and 200 nM in assay [2] (setting [5]). Further, the figures for the Emax in assay [1] (setting [7]) and in assay [2] (CHO-K1) were 70% and 30%, respectively.
Turning to `O=C1NC[C@@H]2CN(Cc3ccccc3)C[C@H]2c2cnccc21` (relative stereo) [Example 152, Trans-2-benzyl-1,2,3,3a,4,5-hexahydropyrido[3,4-e]pyrrolo[3,4-c]azepin-6(10bH)-one], the EC50 was 2000 nM in assay [1] (setting [3]) and greater than 10000 nM in assay [2] (setting [5]). The Emax is 50% in assay [1] (setting [7]) and “inactive” in assay [2] (setting [6]).
As to `CN1C[C@H]2CNC(=O)c3cc(-c4cc(F)c(F)c(F)c4)ccc3[C@@H]2C1` (relative stereo) [Example 322, Trans-2-methyl-8-(3,4,5-trifluorophenyl)-2,3,3a,4,5,10b-hexahydropyrrolo[3,4-d][2]benzazepin-6(1H)-one], the concentration giving a half-maximal response (EC50) is 20 nM in assay [1] (setting [3]) and greater than 10000 nM in assay [2] (setting [5]). The Emax in assay [1] (setting [4]) is 80%; in assay [2] (setting [6]) it was “inactive”.
